In PubChem BioAssay AID248 (DTP/NCI, 2004) one finds T/C data, which are given here for 18 molecules.

Values joined by “and” are separate entries in the source; they are usually repeats but may differ in a detail not shown here. Equal entries are not always repeated. Inconclusive results and toxic doses are left out.

This assay concerns L1210 leukemia ip in BDF1 mice, survival T/C. As to the kind of experiment: NCI In Vivo Anticancer Drug Screen. Data for tumor model L1210 Leukemia (intraperitoneal) in B6D2F1 (BDF1) mice. Conditions: endpoint: mean survival time, higher = longer survival. In outline: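 Ratio derived from survival: compound-dosed mice over vehicle-dosed mice, all bearing a transplantable tumor.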

[1] abbreviates: dose: 15.0 mg/kg/injection, schedule: Q01DX Z (ip), vehicle: carboxymethylcellulose (CMC).
The mark [2] stands for this setting: dose: 30.0 mg/kg/injection, schedule: Q01DX Z (ip), vehicle: carboxymethylcellulose (CMC).
The mark [3] stands for this setting: dose: 60.0 mg/kg/injection, schedule: Q01DX Z (ip), vehicle: carboxymethylcellulose (CMC).
Where [4] appears, read: dose: 100.0 mg/kg/injection, schedule: Q04DX003 (ip), vehicle: Klucel (hydroxypropylcellulose) (HPC).
The mark [5] stands for this setting: dose: 200.0 mg/kg/injection, schedule: Q04DX003 (ip), vehicle: Klucel (hydroxypropylcellulose) (HPC).
[6] abbreviates: dose: 400.0 mg/kg/injection, schedule: Q04DX003 (ip), vehicle: Klucel (hydroxypropylcellulose) (HPC).
[7] abbreviates: dose: 100.0 mg/kg/injection, schedule: Q01DX009 (ip), vehicle: saline.
Where [8] appears, read: dose: 100.0 mg/kg/injection, schedule: Q01DX009 (ip), vehicle: saline with Tween-80.
Where [9] appears, read: dose: 200.0 mg/kg/injection, schedule: Q01DX009 (ip), vehicle: saline with Tween-80.

On to `CC(C)=C1CCC(C)C/C1=N\N=C(N)N` (stereo not drawn), for which the T/C under setting [1] is 100 % of control; the T/C under setting [2] is 106 % of control; the T/C under setting [3] is 89 % of control; the T/C (dose: 120.0 mg/kg/injection, schedule: Q01DX Z (oral), vehicle: carboxymethylcellulose (CMC)) was 97 % of control; the T/C (dose: 240.0 mg/kg/injection, schedule: Q01DX Z (oral), vehicle: carboxymethylcellulose (CMC)) was 97 % of control; the T/C (dose: 480.0 mg/kg/injection, schedule: Q01DX Z (oral), vehicle: carboxymethylcellulose (CMC)) is 101 % of control.
Turning to `CN(C)c1ccc(N=Nc2ccc3c(c2)C(=O)c2ccccc2C3=O)cc1`, the T/C by setting is: (dose: 100.0 mg/kg/injection, schedule: Q01DX009 (ip), vehicle: other) 104 % of control; (dose: 200.0 mg/kg/injection, schedule: Q01DX009 (ip), vehicle: other) 105 % of control; (dose: 400.0 mg/kg/injection, schedule: Q01DX009 (ip), vehicle: other) 98 % of control.
As for `O=C(Nc1ccc(C2=NCCN2)cc1)c1cncc(C(=O)Nc2ccc(C3=NCCN3)cc2)c1`, the T/C reads like this: (dose: 1.0 mg/kg/injection, schedule: Q01DX Z (ip), vehicle: saline) 97 % of control; (dose: 2.0 mg/kg/injection, schedule: Q01DX Z (ip), vehicle: saline) 111 % of control; under setting [1], 223 % of control; (dose: 16.0 mg/kg/injection, schedule: Q01DX Z (ip), vehicle: saline) 214 % of control; under setting [2], 158 % of control; (dose: 30.0 mg/kg/injection, schedule: Q01DX Z (oral), vehicle: saline) 101 % of control. For the same molecule, the T/C under setting [3] was 120 % of control; the T/C (dose: 60.0 mg/kg/injection, schedule: Q01DX Z (oral), vehicle: saline) is 104 % of control; the T/C (dose: 120.0 mg/kg/injection, schedule: Q01DX Z (oral), vehicle: saline) is 98 % of control; the T/C (dose: 240.0 mg/kg/injection, schedule: Q01DX Z (oral), vehicle: saline) was 106 % of control; the T/C (dose: 480.0 mg/kg/injection, schedule: Q01DX Z (oral), vehicle: saline) is 101 % of control; the T/C (dose: 960.0 mg/kg/injection, schedule: Q01DX Z (oral), vehicle: saline) was 101 % of control.
On to `O=C(Nc1ccccc1)OCCc1ccc([N+](=O)[O-])cc1`, for which the T/C runs as follows: under setting [4], 100 % of control; under setting [5], 98 % of control; under setting [6], 102 % of control.
As to `CN(C)CCN(C(=O)c1ccc(N)cc1)c1ccccc1`, the T/C is, setting by setting: (dose: 50.0 mg/kg/injection, schedule: Q01DX009 (ip), vehicle: saline) 91 % of control; under setting [7], 109 % of control.
In the case of `CC(=O)N(C(C)=O)c1ccccc1`, the T/C was 105 % of control under setting [8]; 107 % of control under setting [9]; 115 % of control (dose: 400.0 mg/kg/injection, schedule: Q01DX009 (ip), vehicle: saline with Tween-80).
With `COc1ccc(S(=O)(=O)Nc2cc([N+](=O)[O-])ccc2OC)cc1`, the T/C reads like this: (dose: 100.0 mg/kg/injection, schedule: Q01DX009 (ip), vehicle: Klucel (hydroxypropylcellulose) (HPC)) 103 % of control; (dose: 200.0 mg/kg/injection, schedule: Q01DX009 (ip), vehicle: Klucel (hydroxypropylcellulose) (HPC)) 97 % of control; (dose: 400.0 mg/kg/injection, schedule: Q01DX009 (ip), vehicle: Klucel (hydroxypropylcellulose) (HPC)) 95 % of control.
Turning to `CC/C=C(\C)C1(C(C)C)C(=O)NC(=O)NC1=O`, under “dose: 75.0 mg/kg/injection, schedule: Q01DX001 (ip), vehicle: carboxymethylcellulose (CMC)”, the T/C is 105 % of control.
As for `Cn1c(=O)cc(CC#N)c2ccccc21`, the T/C (dose: 100.0 mg/kg/injection, schedule: Q01DX001 (ip), vehicle: other) is 100 % of control.
On to `CCCCOP(=O)(OCCCC)Oc1cccc([N+](=O)[O-])c1`, for which the T/C was 117 % of control and 89 % of control (dose: 6.25 mg/kg/injection, schedule: Q01DX009 (ip), vehicle: carboxymethylcellulose (CMC)); 93 % of control and 101 % of control (dose: 6.25 mg/kg/injection, schedule: Q04DX002 (ip), vehicle: carboxymethylcellulose (CMC)); 110 % of control and 89 % of control (dose: 12.5 mg/kg/injection, schedule: Q01DX009 (ip), vehicle: carboxymethylcellulose (CMC)); 93 % of control and 101 % of control (dose: 12.5 mg/kg/injection, schedule: Q04DX002 (ip), vehicle: carboxymethylcellulose (CMC)); 104 % of control (dose: 25.0 mg/kg/injection, schedule: Q01DX001 (ip), vehicle: carboxymethylcellulose (CMC)); 98 % of control and 92 % of control (dose: 25.0 mg/kg/injection, schedule: Q01DX009 (ip), vehicle: carboxymethylcellulose (CMC)). For the same molecule, under “dose: 50.0 mg/kg/injection, schedule: Q01DX001 (ip), vehicle: carboxymethylcellulose (CMC)”, the T/C was 100 % of control.
For the molecule `O=C(O)C1C(C(=O)O)C2C=CC1C21CCCC1` (stereo not drawn), the T/C was 97 % of control (dose: 75.0 mg/kg/injection, schedule: Q01DX001 (ip), vehicle: saline); 97 % of control (dose: 150.0 mg/kg/injection, schedule: Q01DX001 (ip), vehicle: saline); 95 % of control (dose: 300.0 mg/kg/injection, schedule: Q01DX001 (ip), vehicle: saline).
For the molecule `O=C(O)/C=C(\F)C(=O)O`, the T/C (dose: 50.0 mg/kg/injection, schedule: Q01DX005 (ip), vehicle: water) was 109 % of control and 91 % of control; the T/C (dose: 100.0 mg/kg/injection, schedule: Q01DX005 (ip), vehicle: water) was 96 % of control and 98 % of control; the T/C (dose: 200.0 mg/kg/injection, schedule: Q01DX005 (ip), vehicle: water) was 107 % of control and 105 % of control.
Consider `Cc1cccc(C(=O)OCc2ccccc2CN(C)C)c1`, for which the T/C was 91 % of control (dose: 75.0 mg/kg/injection, schedule: Q04DX002 (ip), vehicle: Klucel (hydroxypropylcellulose) (HPC)); 94 % of control (dose: 150.0 mg/kg/injection, schedule: Q04DX002 (ip), vehicle: Klucel (hydroxypropylcellulose) (HPC)); 94 % of control (dose: 300.0 mg/kg/injection, schedule: Q04DX002 (ip), vehicle: Klucel (hydroxypropylcellulose) (HPC)).
As to `Oc1cc(O)cc(O)c1`, the T/C is 96 % of control under setting [7]; 115 % of control (dose: 100.0 mg/kg/injection, schedule: Q04DX002 (ip), vehicle: saline); 100 % of control (dose: 200.0 mg/kg/injection, schedule: Q01DX009 (ip), vehicle: saline); 104 % of control (dose: 200.0 mg/kg/injection, schedule: Q04DX002 (ip), vehicle: saline); 100 % of control (dose: 400.0 mg/kg/injection, schedule: Q01DX009 (ip), vehicle: saline); 100 % of control (dose: 400.0 mg/kg/injection, schedule: Q04DX002 (ip), vehicle: saline).
For the molecule `O=c1[nH]c2ccccc2c2ccc([N+](=O)[O-])cc12`, the T/C is 95 % of control (dose: 100.0 mg/kg/injection, schedule: Q01DX001 (ip), vehicle: carboxymethylcellulose (CMC)); 106 % of control (dose: 200.0 mg/kg/injection, schedule: Q01DX001 (ip), vehicle: carboxymethylcellulose (CMC)); 93 % of control (dose: 400.0 mg/kg/injection, schedule: Q01DX001 (ip), vehicle: carboxymethylcellulose (CMC)).
In the case of `CC1=NN(c2cccc([N+](=O)[O-])c2)C(=O)C1`, the T/C (dose: 100.0 mg/kg/injection, schedule: Q01DX001 (ip), vehicle: saline with Tween-80) is 96 % of control; the T/C (dose: 200.0 mg/kg/injection, schedule: Q01DX001 (ip), vehicle: saline with Tween-80) was 96 % of control; the T/C (dose: 400.0 mg/kg/injection, schedule: Q01DX001 (ip), vehicle: saline with Tween-80) was 98 % of control.
On to `c1ccc(C2=NC(c3ccccc3)(C3(c4ccccc4)SCCCS3)CO2)cc1` (stereo not drawn), for which the T/C is, setting by setting: (dose: 75.0 mg/kg/injection, schedule: Q01DX009 (ip), vehicle: Klucel (hydroxypropylcellulose) (HPC)) 101 % of control; under setting [4], 102 % of control; (dose: 150.0 mg/kg/injection, schedule: Q01DX009 (ip), vehicle: Klucel (hydroxypropylcellulose) (HPC)) 98 % of control; under setting [5], 105 % of control; (dose: 300.0 mg/kg/injection, schedule: Q01DX009 (ip), vehicle: Klucel (hydroxypropylcellulose) (HPC)) 90 % of control; under setting [6], 102 % of control.
Take `Cc1ccc(S(=O)(=O)N/N=C2\CC3(Cl)CCC2C3)cc1` (stereo not drawn): the T/C by setting is: under setting [8], 88 % of control; (dose: 100.0 mg/kg/injection, schedule: Q04DX003 (ip), vehicle: saline with Tween-80) 92 % of control; under setting [9], 91 % of control; (dose: 200.0 mg/kg/injection, schedule: Q04DX003 (ip), vehicle: saline with Tween-80) 97 % of control; (dose: 400.0 mg/kg/injection, schedule: Q04DX003 (ip), vehicle: saline with Tween-80) 101 % of control.
